One may read the IC50 as the concentration at which inhibition is half-maximal.

Here are results for 20 molecules from patent US11414429B2, “Compound or pharmaceutically acceptable salt thereof” (RIKEN, priority 2016, dated 2022).

One assay deals with T1, tankyrase 1 (TNKS 1) (Homo sapiens, UniProt O95271).
T1 construct: 1,024-1,327aa; made in house; host or cells: cell-free protein synthesis system
Description: Tankyrase inhibitory activity test (ELISA, self-polyADP ribosylation), tankyrase 1. The format is biochemical. Conditions: self-polyADP ribosylation. In short, it runs like this:
(§1)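 Flag-tagged TNKS1 (1,024-1,327aa, SAM+PARP) and TNKS2 (613-1,116aa, ANK5+SAM+PARP) were made cell-free and captured overnight at 4 °C on anti-FLAG M2 plates. After 10 min compound preincubation in Tris pH 8.0/MgCl2/DTT buffer, NAD (225 μM) plus biotin-NAD (25 μM) solution was added for 45 min at 30 °C. Auto-PARylation was read by streptavidin-HRP chemiluminescence, giving IC50 from residual activity.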
Background: An ELISA detects its analyte on a solid surface through an enzyme-linked reagent.

The test system of assay [1] is human colorectal cancer cell line, COLO-320DM. Description: Cell proliferation inhibitory activity test (Celltiter-Glo Luminescent Cell Viability Assay). Conditions: COLO-320DM cells, 96 hours. It counts as cell-based. In short, it runs like this:
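Cells grown in RPMI-1640 with 10% FBS and 2 mM glutamine, seeded overnight, then exposed to compound (1% DMSO final) for 96 h at 37° C., 5% CO2. Viability read by ATP luminescence; GI50 is the concentration reducing cell growth to 50% of DMSO control.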

The next assay deals with T2, tankyrase 2 (TNKS 2) (Homo sapiens, UniProt Q9H2K2).
T2 construct: 613-1, 116aa; made in house; host or cells: cell-free protein synthesis system
Put plainly: Tankyrase inhibitory activity test (ELISA, self-polyADP ribosylation), tankyrase 2. The format is biochemical. Conditions: self-polyADP ribosylation. In outline:
as §1

[2] abbreviates: ELISA, class symbols, read-out: TNKS1 (inhibitory activity against tankyrase 1, IC50 value).
Where [3] appears, read: class symbols, read-out: COLO-320 DM (cell proliferation inhibitory activity, GI50 value).
[4] abbreviates: ELISA, class symbols, read-out: TNKS2 (inhibitory activity against tankyrase 2, IC50 value).
[5] abbreviates: tankyrase 1, ELISA, read-out: TNKS1 inhibitory activity (IC50 class).
Where [6] appears, read: read-out: COLO-320 DM cell proliferation inhibitory activity (GI50 class).
[7] abbreviates: tankyrase 2, ELISA, read-out: TNKS2 inhibitory activity (IC50 class).

Where two headings read alike, the source gives them in different places.

T1 sequence (O95271 1024-1327): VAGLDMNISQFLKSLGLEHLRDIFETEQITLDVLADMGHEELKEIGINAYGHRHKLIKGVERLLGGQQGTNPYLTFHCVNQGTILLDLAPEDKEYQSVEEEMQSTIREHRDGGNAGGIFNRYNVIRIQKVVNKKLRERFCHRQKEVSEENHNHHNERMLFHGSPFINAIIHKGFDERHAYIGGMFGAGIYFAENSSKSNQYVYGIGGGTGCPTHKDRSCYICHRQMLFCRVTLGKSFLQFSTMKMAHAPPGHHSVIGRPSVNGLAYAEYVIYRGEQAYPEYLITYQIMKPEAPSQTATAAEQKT
T2 sequence (Q9H2K2 613-1166): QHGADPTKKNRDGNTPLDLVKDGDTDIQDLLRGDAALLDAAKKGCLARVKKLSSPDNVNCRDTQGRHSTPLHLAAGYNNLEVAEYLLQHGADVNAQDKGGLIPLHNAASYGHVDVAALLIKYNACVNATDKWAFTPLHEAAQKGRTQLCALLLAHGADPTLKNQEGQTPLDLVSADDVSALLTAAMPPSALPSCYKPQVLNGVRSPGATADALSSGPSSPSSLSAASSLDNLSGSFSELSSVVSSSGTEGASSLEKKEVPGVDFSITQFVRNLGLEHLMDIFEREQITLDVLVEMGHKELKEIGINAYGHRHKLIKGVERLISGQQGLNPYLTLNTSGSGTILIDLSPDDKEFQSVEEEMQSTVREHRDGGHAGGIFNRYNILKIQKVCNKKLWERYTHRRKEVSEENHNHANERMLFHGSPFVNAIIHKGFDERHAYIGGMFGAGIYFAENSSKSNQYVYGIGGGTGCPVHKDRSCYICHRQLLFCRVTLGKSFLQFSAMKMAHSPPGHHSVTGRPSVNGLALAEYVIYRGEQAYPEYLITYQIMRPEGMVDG

With `CN1CCCc2c1nc(N1CCC3(CC1)OC(=O)c1cc(N4CCN(CC(C)(C)O)CC4)cc(F)c13)[nH]c2=O` [Example 439, 4-fluoro-1′-(4-hydroxy-8-methyl-6,7-dihydro-5H-pyrido[2,3-d]pyrimidin-2-yl)-6-[4-(2-hydroxy-2-methyl-propyl)piperazin-1-yl] spiro[2,3-benzofuran-3,4′-piperidine]-1-one], the IC50 at tankyrase 1 (TNKS 1) (setting [2]) and on tankyrase 2 (TNKS 2) (setting [4]) was under 20 nM each time. For the same molecule, in assay [1] (setting [3]), the GI50 lay within 100 to 600 nM.
Regarding `CN1CCN(c2ccc(-c3cc(F)c4c(c3)C(=O)OC43CCN(c4nc5c(c(=O)[nH]4)CCCN5C)CC3)cc2)CC1` [Example 444, 4-fluoro-1′-(4-hy-droxy-8-methyl-6,7-dihydro-5H-pyrido [2,3-d]pyrimidin-2-yl)-6-[4-(4-meth-ylpiperazin-1-yl)phenyl]spiro[2-benzofuran-3,4′-piperidine]-1-one], the IC50 on tankyrase 1 (TNKS 1) (setting [2]) and at tankyrase 2 (TNKS 2) (setting [4]) was 20 to 200 nM throughout. In addition, the GI50 in assay [1] (setting [3]) was 100 to 600 nM.
In the case of `CN1CCCc2c(O)nc(N3CCC4(CC3)OC(=O)c3cc(OCCN5CCCC5)cc(F)c34)nc21` [Example 395, 4-fluoro-1′-(4-hydroxy-8-methyl-6,7-dihydro-5H-pyrido[2,3-d]pyrimidin-2-yl)-6-(2-pyrrolidin-1-ylethoxy)spiro[2-benzofuran-3,4′-piperidine]-1-one], the IC50 at tankyrase 1 (TNKS 1) (setting [2]) and at tankyrase 2 (TNKS 2) (setting [4]) was under 20 nM each time. The GI50 in assay [1] (setting [3]) lay in the range of 600 to 1000 nM.
With `CN1CC2(CCN(c3nc4c(c(=O)[nH]3)CCCN4C)CC2)c2c(F)cc(F)cc21` [Example 337, 2-(4,6-difluoro-1-methylspiro [indoline-3,4′-piperidin]-1′-yl)-8-methyl-5,6,7,8-tetrahy-dropyrido [2,3-d] pyrimidin-4(3H)-one], the half-inhibitory concentration (IC50) at tankyrase 1 (TNKS 1) (setting [5]) and on tankyrase 2 (TNKS 2) (setting [7]) was under 20 nM throughout. In addition, the GI50 in assay [1] (setting [6]) was in the range of 100 to 600 nM.
Regarding `O=c1[nH]c(N2CCC3(CC2)CN(Cc2cccnc2)c2ccccc23)nc2c1CCCC2` [Example 101, 2-[1-(pyridin-3-ylmethyl)spiro[indoline-3,4′-piperidin]-1′-yl]-5,6,7,8-tetrahydroquinazolin-4(3H)-one], the IC50 at tankyrase 1 (TNKS 1) (setting [5]) and at tankyrase 2 (TNKS 2) (setting [7]) was 20 to 200 nM in each case. Moreover, the GI50 in assay [1] (setting [6]) lay within 600 to 1000 nM.
In the case of `CNS(=O)(=O)COc1cc(F)c2c(c1)N(C)C(=O)C21CCN(c2nc3c(c(=O)[nH]2)CCCN3C)CC1` [Example 453, 1-{[4-fluoro-1-meth-yl-1′-(8-methyl-4-oxo-3,4,5,6,7,8-hexahydropyrido [2,3-d]pyrimidin-2-yl)-2-oxospiro [indole-3,4′-piperi-dine]-6-yl]oxy}-N-methylmethane sulfonamide], the IC50 at tankyrase 1 (TNKS 1) (setting [2]) and on tankyrase 2 (TNKS 2) (setting [4]) was under 20 nM throughout. Also, the GI50 in assay [1] (setting [3]) was in the range of 100 to 600 nM.
Take `CC(C)(O)CN1C(=O)C2(CCN(c3nc4c(c(=O)[nH]3)CCCN4)CC2)c2c(F)cccc21` [Example 452, 4-fluoro-1-(2-hy-droxy-2-methyl-propyl)-1′-(4-hydroxy-5,6,7,8-tetra-hydropyrido[2,3-d]pyrimidin-2-yl)spiro [indole-3,4′-piper-idine]-2-one]: the results for the IC50 at tankyrase 1 (TNKS 1) (setting [2]) and at tankyrase 2 (TNKS 2) (setting [4]) were 20 to 200 nM and under 20 nM, respectively. The GI50 in assay [1] (setting [3]) lay within 100 to 600 nM.
With `COc1ccc2c(c1)C1(CCN(c3nc4c(c(=O)[nH]3)CCCC4)CC1)CN2C` [Example 147, 2-(5-methoxy-1-meth-ylspiro[indoline-3,4′-piperidin]-1′-yl)-5,6,7,8-tetrahydroquinazolin-4(3H)-one], the IC50 at tankyrase 1 (TNKS 1) (setting [5]) was 20 to 200 nM; at tankyrase 2 (TNKS 2) (setting [7]) it was under 20 nM. In addition, the GI50 in assay [1] (setting [6]) is 600 to 1000 nM.
With `CN1CCCc2c1nc(N1CCC3(CC1)C(=O)N(C)c1cc(N4CCC(C#N)CC4)cc(F)c13)[nH]c2=O` [Example 467, 1-[4-fluoro-1-methyl-1′-(8-methyl-4-oxo-3,4,5,6,7,8-hexahydropyrido[2,3-]pyrimidin-2-yl)-2-oxospiro[indole-3,4′-piperidine]-6-yl]piperidine-4-carbonitrile], the results for the IC50 on tankyrase 1 (TNKS 1) (setting [2]) and on tankyrase 2 (TNKS 2) (setting [4]) were 20 to 200 nM and under 20 nM, respectively. Also, the GI50 in assay [1] (setting [3]) is under 100 nM.
In the same order, the values of `CN1CCN(c2cc(F)c3c(c2)N(CC#N)C(=O)C32CCN(c3nc4c(c(=O)[nH]3)CCCN4C)CC2)CC1` [Example 402, [4-fluoro-1′-(8-methyl-4-oxo-3,4,5,6,7,8-hexahydropyrido [2,3-d]py-rimidin-2-yl)-6-(4-methyl-piperazin-1-yl)-2-oxo-spiro[indoline-3,4′-piperidin]-1(2H)-yl] acetonitrile] are 20 to 200 nM, under 20 nM and 100 to 600 nM.
For `COc1ccc(Cl)c2c1N(CCN1CCN(C(C)=O)CC1)C(=O)C21CCN(c2nc3c(c(=O)[nH]2)CCCN3C)CC1` [Example 441, 1-[2-(4-acetylpiper-azin-1-yl)ethyl]-4-chloro-1′-(4-hy-droxy-8-methyl-6,7-dihydro-5H-py-rido[2,3-d]pyrimi-din-2-yl)-7-methoxy-spiro[indole-3,4′-piperidine]-2-one] the same measures were 20 to 200 nM, under 20 nM and 100 to 600 nM.
With `O=C1N(Cc2cccnc2)c2cc(F)cc(F)c2C12CCN(c1nc3c(c(=O)[nH]1)CCCC3)CC2` [Example 333, 4,6-difluoro-1′-(4-oxo-3,4,5,6,7,8-hexahydro-quinazolin-2-yl)-1-(pyridin-3-ylmethyl) spiro[indoline-3,4′-piperidin]-2-one], the IC50 on tankyrase 1 (TNKS 1) (setting [5]) and at tankyrase 2 (TNKS 2) (setting [7]) was under 20 nM throughout. The GI50 in assay [1] (setting [6]) lay within 100 to 600 nM.
For `CN1CCCc2c1nc(N1CCC3(CC1)C(=O)N(C)c1cc(F)cc(F)c13)[nH]c2=O` [Example 339, 4,6-difluoro-1-methyl-1′-(8-methyl-4-oxo-3,4,5,6,7,8-hexahydro-pyrido[2,3-d]pyrimidin-2-yl)spiro [indoline-3,4′-piperidin]-2-one], the IC50 on tankyrase 1 (TNKS 1) (setting [5]) and at tankyrase 2 (TNKS 2) (setting [7]) was under 20 nM in each case. Further, the GI50 in assay [1] (setting [6]) lay within 100 to 600 nM.
Take `CN1CCCc2c1nc(N1CCC3(CC1)C(=O)N(C)c1cc(-c4nc(CN5CCCC5)co4)cc(Cl)c13)[nH]c2=O` [Example 329, 4-chloro-1-methyl-1′-(8-methyl-4-oxo-3,4,5,6,7,8-hexahydro-pyrido[2,3-d]-pyrimidin-2-yl)-6-[4-(pyrroidin-1yl-methyl)oxazol-2-yl]-spiro-[indoline-3,4′-piperidin]-2-one]: the IC50 on tankyrase 1 (TNKS 1) (setting [5]) and on tankyrase 2 (TNKS 2) (setting [7]) was 20 to 200 nM each time. Moreover, the GI50 in assay [1] (setting [6]) is 600 to 1000 nM.
On to `CCOC(=O)c1cc(Cl)c2c(c1)N(Cc1cccnc1)CC21CCN(c2nc3c(c(=O)[nH]2)CCCC3)CC1` [Example 193, ethyl 4-chloro-1′-(4-oxo-3,4,5,6,7,8-hexahydroquinazolin-2-yl)-1-(pyridin-3-yl) methylspiro [indoline-3,4′-piperidine]-6-carboxylate], for which the 50% inhibitory concentration (IC50) on tankyrase 1 (TNKS 1) (setting [5]) and at tankyrase 2 (TNKS 2) (setting [7]) was 20 to 200 nM throughout. Besides, the GI50 in assay [1] (setting [6]) lay within 100 to 600 nM.
As to `O=c1[nH]c(N2CCC3(CC2)CN(Cc2ccncc2)c2ccccc23)nc2c1CCCC2` [Example 100, 2-[1-(pyridin-4-ylmethyl)spiro[indoline-3,4′-piperidin]-1′-yl]-5,6,7,8-tetrahydroquinazolin-4(3H)-one], the figures for the IC50 on tankyrase 1 (TNKS 1) (setting [5]) and at tankyrase 2 (TNKS 2) (setting [7]) were under 20 nM and 20 to 200 nM, respectively. In assay [1] (setting [6]), the GI50 fell in the range of 600 to 1000 nM.
Turning to `CN1CCCc2c1nc(N1CCC3(CC1)C(=O)N(C)c1cc(N4CC5CCC(C4)N5)cc(F)c13)[nH]c2=O` [Example 391, 6-(3,8-diazabicyclo [3.2.1]octan-3-yl)-4-fluoro-1-methyl-1′-(8-methyl-4-oxo-3,4,5,6,7,8-hexahydro-pyrido[2,3-d]pyrimidin-2-yl) spiro[indoline-3,4′-piperidin]-2(1H)-one], the IC50 on tankyrase 1 (TNKS 1) (setting [2]) and at tankyrase 2 (TNKS 2) (setting [4]) was under 20 nM throughout. In addition, the GI50 in assay [1] (setting [3]) lay within 600 to 1000 nM.
Consider `CN(C)CCOc1cc(F)c2c(c1)C(=O)OC21CCN(c2nc3c(c(=O)[nH]2)CCCN3C)CC1` [Example 7, 5-[2-(dimethylamino)ethoxy]-7-fluoro-1′-(8-methyl-4-oxo-3,4,5,6,7,8-hexahydropyrido[2,3-d]pyrimidin-2-yl)-3H-spiro[isobenzofuran-1,4′-piperidin]-3-one], for which the IC50 at tankyrase 1 (TNKS 1) (setting [5]) and on tankyrase 2 (TNKS 2) (setting [7]) was under 20 nM throughout. Besides, the GI50 in assay [1] (setting [6]) is 600 to 1000 nM.
On to `CN1CCCc2c1nc(N1CCC3(CC1)OC(=O)c1cc(-c4cnn(C)c4)cc(F)c13)[nH]c2=O` [Example 450, 4-fluoro-1′-(4-hy-droxy-8-methyl-6,7-dihydro-5H-py-rido[2,3-d]pyrimidin-2-yl)-6-(1-meth-ylpyrazol-4-yl)spiro [2-benzofuran-3,4′-piperidine]-1-one], for which the IC50 on tankyrase 1 (TNKS 1) (setting [2]) and at tankyrase 2 (TNKS 2) (setting [4]) was under 20 nM in each case. Besides, in assay [1] (setting [3]), the GI50 was under 100 nM.
As for `O=c1[nH]c(N2CCC3(CC2)CN(CCO)c2cc(F)cc(F)c23)nc2c(CO)cccc12` [Example 259, 2-[4,6-di-fluoro-1-(2-hydroxy-ethyl)spiro-[indoline-3,4′-piperidin]-1′-yl]-8-(hydroxy-methyl)-quinazolin-4(3H)-one], the concentration for half-maximal inhibition (IC50) at tankyrase 1 (TNKS 1) (setting [5]) and at tankyrase 2 (TNKS 2) (setting [7]) was under 20 nM each time. Further, in assay [1] (setting [6]), the GI50 fell in the range of 600 to 1000 nM.
